According to patent publication US10730887B2, “Compound containing tricyclic heteroaryl group” (Hangzhou Innogate Pharma Co., Ltd., priority 2016, dated 2020):

Experiments:
Format in all cases: biochemical
[1] = target: T1, FLT3 (Homo sapiens, UniProt P36888); assay: FLT3 kinase activity inhibition, Caliper mobility shift assay
T1 sequence (P36888 27-993): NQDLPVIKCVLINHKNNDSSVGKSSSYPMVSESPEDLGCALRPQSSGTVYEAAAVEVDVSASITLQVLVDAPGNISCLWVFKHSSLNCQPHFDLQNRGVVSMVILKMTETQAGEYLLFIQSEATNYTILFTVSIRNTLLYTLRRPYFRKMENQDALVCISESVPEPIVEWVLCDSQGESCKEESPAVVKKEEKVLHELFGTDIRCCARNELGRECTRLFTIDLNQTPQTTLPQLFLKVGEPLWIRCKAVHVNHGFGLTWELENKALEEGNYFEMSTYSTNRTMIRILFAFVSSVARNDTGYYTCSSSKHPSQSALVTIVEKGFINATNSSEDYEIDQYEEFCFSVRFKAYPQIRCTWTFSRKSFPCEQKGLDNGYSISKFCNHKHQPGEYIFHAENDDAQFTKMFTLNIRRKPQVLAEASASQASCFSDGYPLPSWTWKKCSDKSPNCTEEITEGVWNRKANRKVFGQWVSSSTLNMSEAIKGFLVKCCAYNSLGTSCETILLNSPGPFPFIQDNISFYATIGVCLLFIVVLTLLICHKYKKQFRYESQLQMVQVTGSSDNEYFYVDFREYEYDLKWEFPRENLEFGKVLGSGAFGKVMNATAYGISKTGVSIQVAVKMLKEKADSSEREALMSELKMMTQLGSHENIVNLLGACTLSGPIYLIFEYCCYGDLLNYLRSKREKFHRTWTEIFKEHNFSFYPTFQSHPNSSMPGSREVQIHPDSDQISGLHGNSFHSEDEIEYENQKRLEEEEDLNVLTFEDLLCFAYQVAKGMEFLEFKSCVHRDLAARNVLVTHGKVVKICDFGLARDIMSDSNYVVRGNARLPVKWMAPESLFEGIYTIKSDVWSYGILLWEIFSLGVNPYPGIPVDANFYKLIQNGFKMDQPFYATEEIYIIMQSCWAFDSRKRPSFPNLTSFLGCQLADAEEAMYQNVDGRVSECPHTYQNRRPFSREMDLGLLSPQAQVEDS
Method: FLT3 protein kinase activity was measured using the Caliper mobility shift assay. The compound was dissolved in DMSO and diluted with a kinase buffer (50 mM HEPES, pH 7.5, 0.0015% Brij-35, 2 mM DTT), and 5 μL of a 5-fold final concentration of the compound (10% DMSO) was added to a 384-well plate. After adding 10 μL of 2.5-fold FLT3 enzyme solution, incubate for 10 minutes at room temperature, and then add 10 μL of a 2.5-fold substrate (FAM-labeled polypeptide and ATP) solution. After incubation at 28° C. for 60 minutes, the reaction was stopped by adding 25 μL of stop solution (100 mM HEPES, 0.015% Brij-35, 0.2% Coating Reagent #3, 50 mM EDTA, pH 7.5). Conversion rate data was read on a Caliper EZ Reader II (Caliper Life Sciences). The conversion rate was converted into inhibition rate data (% inhibition rate=(max−conversion rate)/(max−min)*100). Where max is the conversion of the DMSO control and min is the conversion of the enzyme-free control Curves were plotted with compound concentration and inhibition rate on the horizontal and vertical coordinates, and the curve was fitted using XLFit excel add-in version 4.3.1 software and IC50 was calculated.

[2] = target: T2, Axl (Homo sapiens, UniProt P30530); assay: Axl kinase activity inhibition, Caliper mobility shift assay
T2 sequence (P30530 26-894): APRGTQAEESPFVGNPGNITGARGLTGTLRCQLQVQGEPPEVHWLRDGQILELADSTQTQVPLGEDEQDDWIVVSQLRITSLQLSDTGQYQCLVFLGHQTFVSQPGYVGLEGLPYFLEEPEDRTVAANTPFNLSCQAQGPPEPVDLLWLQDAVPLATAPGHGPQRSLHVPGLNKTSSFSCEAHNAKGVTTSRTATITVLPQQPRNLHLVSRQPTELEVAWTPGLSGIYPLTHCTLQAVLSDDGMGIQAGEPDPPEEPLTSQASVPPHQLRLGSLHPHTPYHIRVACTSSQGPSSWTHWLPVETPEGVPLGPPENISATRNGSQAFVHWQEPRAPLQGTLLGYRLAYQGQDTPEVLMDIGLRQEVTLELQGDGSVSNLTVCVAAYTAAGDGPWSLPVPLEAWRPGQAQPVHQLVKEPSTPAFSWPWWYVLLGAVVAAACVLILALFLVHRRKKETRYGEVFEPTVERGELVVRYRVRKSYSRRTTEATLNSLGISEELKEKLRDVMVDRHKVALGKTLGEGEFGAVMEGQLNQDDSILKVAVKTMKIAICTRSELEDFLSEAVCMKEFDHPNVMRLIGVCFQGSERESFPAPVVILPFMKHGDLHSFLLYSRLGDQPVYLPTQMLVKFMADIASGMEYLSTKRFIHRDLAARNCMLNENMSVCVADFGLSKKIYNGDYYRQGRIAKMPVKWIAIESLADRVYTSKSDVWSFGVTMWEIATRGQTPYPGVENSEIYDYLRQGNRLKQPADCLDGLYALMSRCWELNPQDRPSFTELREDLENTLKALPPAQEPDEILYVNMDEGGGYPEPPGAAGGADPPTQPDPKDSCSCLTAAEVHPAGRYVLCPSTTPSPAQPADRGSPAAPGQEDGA
Method: Axl protein kinase activity was determined using the Caliper mobility shift assay. The compound was dissolved in DMSO and diluted with kinase buffer (50 mM HEPES, pH 7.5, 0.0015% Brij-35, 2 mM DTT), and 5 μL of 5 times the final concentration of the compound (10%) was added to the 384-well plate. DMSO). After adding 10 μL of a 2.5-fold Axl enzyme solution, incubate for 10 minutes at room temperature, and then add 10 μL of a 2.5-fold substrate (FAM-labeled polypeptide and ATP) solution. After incubation at 28° C. for 60 minutes, the reaction was stopped by the addition of […] stop solution (100 mM HEPES, 0.015% Brij-35, 0.2% Coating Reagent #3, 50 mM EDTA, pH 7.5). Conversion rate was read on a Caliper EZ Reader II (Caliper Life Sciences). The conversion rate was converted into inhibition rate (% inhibition rate=(max−conversion rate)/(max−min)*100). Where max is the conversion of the DMSO control and min is the conversion of the enzyme-free control. Curves were plotted with compound concentration and inhibition rate on the horizontal and vertical coordinates, and the curve was fitted using XLFit excel add-in version 4.3.1 software and IC50 was calculated.

[3] = target: FAK (Homo sapiens, UniProt Q05397); assay: FAK kinase activity inhibition, Latha screen analysis
Method: FAK protein kinase activity was determined by Latha screen analysis. The compound was dissolved in DMSO and diluted with kinase buffer (25 mM HEPES, pH 7.5, 0.01 mM Triton, 10 mM MgCl2, 0.5 mM EGTA, 0.01% BRIJ-35, 2 mM DTT), 2.5 μL was added to the 384-well plate 4 times the final concentration of the compound (4% DMSO). After adding 5 μL of 2-fold FAK enzyme solution, incubate for 10 minutes at room temperature, and then add 2.5 μL of 4 times substrate (Fluorescein-polyGT and ATP) solution. After incubating for 30 minutes at 25° C., 10 μL of the detection solution (antibody of phosphorylation site 2 nM and EDTA 10 mM) was added to terminate the reaction. The data emitted at […] and emitted at 520 nm was read from Envision, and the luminescence reading data was copied from the Envision program, and the value of the luminescence reading was converted to the percent inhibition by a formula. The conversion rate was converted into inhibition rate data (% inhibition rate=(max−conversion rate)/(max−min)*100). “min” is the control fluorescence reading for the reaction without enzyme: “max” is the fluorescence reading of the sample with DMSO added as a control. Curves were plotted with compound concentration and inhibition rate on the horizontal and vertical coordinates, and the curve was fitted using XLFit excel add-in version 4.3.1 software and IC50 was calculated.

FAK, sequence (Q05397 whole entry, species assumed): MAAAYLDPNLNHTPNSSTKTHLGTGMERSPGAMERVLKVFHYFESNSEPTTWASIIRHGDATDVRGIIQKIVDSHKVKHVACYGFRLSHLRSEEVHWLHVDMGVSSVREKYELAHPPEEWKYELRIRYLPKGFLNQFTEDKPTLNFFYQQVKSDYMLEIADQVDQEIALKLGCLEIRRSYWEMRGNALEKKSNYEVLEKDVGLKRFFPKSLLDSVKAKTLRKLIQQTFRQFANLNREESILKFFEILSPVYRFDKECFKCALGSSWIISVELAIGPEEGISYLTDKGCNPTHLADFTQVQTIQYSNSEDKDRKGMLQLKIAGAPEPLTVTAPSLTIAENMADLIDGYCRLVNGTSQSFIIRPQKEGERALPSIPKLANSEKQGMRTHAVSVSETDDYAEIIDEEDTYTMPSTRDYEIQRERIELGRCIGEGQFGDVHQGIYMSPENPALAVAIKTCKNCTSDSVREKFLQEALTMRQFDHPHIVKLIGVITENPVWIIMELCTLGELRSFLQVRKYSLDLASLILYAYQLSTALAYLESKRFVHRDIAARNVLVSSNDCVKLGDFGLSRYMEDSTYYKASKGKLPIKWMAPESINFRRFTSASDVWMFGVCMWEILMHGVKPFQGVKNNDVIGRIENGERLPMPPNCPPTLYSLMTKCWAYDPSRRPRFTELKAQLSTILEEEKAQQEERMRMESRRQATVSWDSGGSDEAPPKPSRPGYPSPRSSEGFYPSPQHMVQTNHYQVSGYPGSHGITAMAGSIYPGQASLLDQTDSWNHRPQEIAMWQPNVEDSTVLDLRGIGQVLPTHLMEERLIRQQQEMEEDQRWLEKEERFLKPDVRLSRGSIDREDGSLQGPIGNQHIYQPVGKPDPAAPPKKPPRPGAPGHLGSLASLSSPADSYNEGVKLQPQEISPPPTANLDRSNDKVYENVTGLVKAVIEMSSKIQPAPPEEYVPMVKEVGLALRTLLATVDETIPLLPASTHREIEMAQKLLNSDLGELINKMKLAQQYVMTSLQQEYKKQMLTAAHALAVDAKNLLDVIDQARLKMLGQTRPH

| SMILES | IC50 [1] | IC50 [2] | IC50 [3] |
| --- | --- | --- | --- |
| CCc1nc(C(N)=O)c(Nc2ccc3c(c2)OC[C@H]2CN(C)CCN32)nc1NC1CCOCC1 [Compound D1R] | < 1 nM | < 10 nM |  |
| CCc1nc(C(N)=O)c(Nc2ccc3c(c2)OC[C@@H]2CN(C)CCN32)nc1NC1CCOCC1 [Compound D1S] | < 1 nM | < 10 nM |  |
| CCc1nc(C(N)=O)c(Nc2ccc3c(c2)OC[C@H]2CN(C4CCN(C)CC4)CCN32)nc1NC1CCOCC1 [Compound D6R] | < 1 nM | < 10 nM |  |

Continued, values first:

| IC50 [1] | IC50 [2] | IC50 [3] | SMILES |
| --- | --- | --- | --- |
|  |  | < 1 nM | CNC(=O)c1ccccc1Nc1cc(Nc2ccc3c(c2)OC[C@H]2CN(C)CCN32)ncc1C(F)(F)F [Compound E1R] |
|  |  | < 1 nM | CNC(=O)c1ccccc1Nc1cc(Nc2ccc3c(c2)OC[C@@H]2CN(C)CCN32)ncc1C(F)(F)F [Compound E1S] |
|  |  | < 1 nM | CNC(=O)c1ccccc1Nc1cc(Nc2ccc3c(c2)OCC2COCCN32)ncc1C(F)(F)F (stereo not drawn) [Compound E1] |
